Laboratory results published in patent US4038410A, “Nitroimidazole derivatives and process for the preparation thereof” (Schering Aktiengesellschaft, priority 1974, dated 1977).
≈ marks a conversion by molar mass, not a printed value. Where two headings read alike, the source gives them in different places.

Key:
Trichomonas vaginalis [1] = assay: Minimum inhibitory concentration against Trichomonas vaginalis; format: cell-based
Entamoeba histolytica = assay: Minimum inhibitory concentration against Entamoeba histolytica; format: cell-based; details: Table II; for MIC: read-out: Minimum Inhibitory Concentration (MIC) in μg./ml. Against Entamoeba hist.
Trichomonas vaginalis [2] = details: literature: C. Cosar, Arzneimittelforschung 16, 23 (1966); French Pat. No. 1,212,028; cited from earlier work
[3] = Table II, read-out: Minimum Inhibitory Concentration (MIC) in μg./ml. Against Trich vag.
[4] = Table I, read-out: Minimum Inhibitory Concentration (MIC) in μg./ml. Against Trich. vag.

Question: With `Cc1c(-c2ncc([N+](=O)[O-])n2C)cnn1-c1ccc(Cl)cc1` [1-(4-Chlorophenyl)-5-methyl-4-(1-methyl-5-nitro-2-imidazolyl)-pyrazole] as the compound, how does the MIC (Trichomonas vaginalis [1]; [3]) read?
Answer: Its MIC is 0.2 µg/mL (≈ 0.629 µM).

Question: With `Cn1nccc1-c1ncc([N+](=O)[O-])n1C` [1-Methyl-5-(1-methyl-5-nitro-2-imidazolyl)-pyrazole] as the compound, how does the MIC (Trichomonas vaginalis [1]; [4]) read?
Answer: The MIC was 0.05 µg/mL (≈ 0.241 µM).

Question: For `COc1ccc(-n2ncc(-c3ncc([N+](=O)[O-])n3C)c2C)cc1` [1-p-Anisyl-5-methyl-4-(1-methyl-5-nitro-2-imidazolyl)-pyrazole], which MIC (Trichomonas vaginalis [1]; [3]) is on record?
Answer: Its MIC is 0.2 µg/mL (≈ 0.638 µM).

Question: Which MIC (Trichomonas vaginalis [1]; [3]) does the source give for `Cc1nc(-c2ccco2)ncc1-c1ncc([N+](=O)[O-])n1C` [2-(2-Furyl)-4-methyl-5-(1-methyl-5-nitro-2-imidazolyl)-pyrimidine] here?
Answer: The MIC was 0.4 µg/mL (≈ 1.4 µM).

Question: With `Cc1c(-c2ncc([N+](=O)[O-])n2C)cnn1CCO` [2-[5-Methyl-4-(1-methyl-5-nitro-2-imidazolyl)-pyrazolyl]-ethanol] as the compound, how does the MIC (Trichomonas vaginalis [1]; [3]) read?
Answer: The MIC was 0.2 µg/mL (≈ 0.796 µM).

Question: And the MIC (Entamoeba histolytica)?
Answer: The MIC was 50 µg/mL (≈ 199 µM).

Question: Which MIC (Trichomonas vaginalis [1]; [3]) does the source give for `Cc1[nH]ncc1-c1ncc([N+](=O)[O-])n1C` [3(5)-Methyl-4-(1-methyl-5-nitro-2-imidazolyl)-pyrazole] here?
Answer: Its MIC is 0.2 µg/mL (≈ 0.965 µM).

Question: What about the MIC (Entamoeba histolytica) of the same compound?
Answer: Its MIC is 12.5 µg/mL (≈ 60.3 µM).

Question: With `Cn1c([N+](=O)[O-])cnc1-c1cc[nH]n1` [3-(1-Methyl-5-nitro-2-imidazolyl)-pyrazole] as the compound, how does the MIC (Trichomonas vaginalis [1]; [4]) read?
Answer: Its MIC is 0.1 µg/mL (≈ 0.518 µM).

Question: Which MIC (Trichomonas vaginalis [1]; [4]) does the source give for `CN(C)C=CC(=O)c1ncc([N+](=O)[O-])n1C` [3-Dimethylamino-1-(1-methyl-5-nitro-2-imidazolyl)-2-propenone] here?
Answer: Its MIC is 0.1 µg/mL (≈ 0.446 µM).

Question: For `Cc1nn([N+](=O)[O-])cc1-c1ncc([N+](=O)[O-])n1C` [3-Methyl-4-(1-methyl-5-nitro-2-imidazolyl)-1-nitropyrazole], which MIC (Trichomonas vaginalis [1]; [3]) is on record?
Answer: The MIC was 0.4 µg/mL (≈ 1.59 µM).

Question: What about the MIC (Entamoeba histolytica) of the same compound?
Answer: The MIC was 25 µg/mL (≈ 99.1 µM).

Question: For `Cc1nc(N)ncc1-c1ncc([N+](=O)[O-])n1C` [4-Methyl-5-(1-methyl-5-nitro-2-imidazolyl)-pyrimidine-2-amine], which MIC (Trichomonas vaginalis [1]; [3]) is on record?
Answer: The MIC was 0.1 µg/mL (≈ 0.427 µM).

Question: Which MIC (Trichomonas vaginalis [1]; [3]) does the source give for `Cc1c(-c2ncc([N+](=O)[O-])n2C)cnn1-c1ccc([N+](=O)[O-])cc1` [5-Methyl-4-(1-methyl-5-nitro-2-imidazolyl)-1-(4-nitrophenyl)-pyrazole] here?
Answer: The MIC was 0.4 µg/mL (≈ 1.22 µM).

Question: Which MIC (Trichomonas vaginalis [1]; [3]) does the source give for `Cc1c(-c2ncc([N+](=O)[O-])n2C)cnn1-c1ccccc1` [5-Methyl-4-(1-methyl-5-nitro-2-imidazolyl)-1-phenylpyrazole] here?
Answer: The MIC was 0.1 µg/mL (≈ 0.353 µM).

Question: What about the MIC (Entamoeba histolytica) of the same compound?
Answer: Its MIC is 12.5 µg/mL (≈ 44.1 µM).

Question: Which MIC (Trichomonas vaginalis [1]; [4]) does the source give for `Cc1ncc([N+](=O)[O-])n1CCO` [Metronidazole, 5-nitro-2-methyl-1-(2-hydroxyethyl)-imidazole, reference compound] here?
Answer: Its MIC is 1.6 µg/mL (≈ 9.35 µM).

Question: And the MIC (Trichomonas vaginalis [1]; [3])?
Answer: The MIC was 1.6 µg/mL (≈ 9.35 µM).

Question: And the “effective against Trichomonas vaginalis” value (Trichomonas vaginalis [2])?
Answer: The value was “effective”.

Question: And the MIC (Entamoeba histolytica)?
Answer: The MIC was over 100 µg/mL.

Question: With “Mixture of 1,3-Dimethyl-4-(1-methyl-5-nitro-2-imidazolyl)-pyrazole and 1,5-Dimethyl-4-(1-methyl-5-nitro-2-imidazolyl)-pyrazole” as the compound, how does the “Minimum Inhibitory Concentration (MIC) in μg./ml. Against Trich vag.” value (Trichomonas vaginalis [1]; Table II) read?
Answer: The value was 0.1 µg/mL.

Question: What about the “Minimum Inhibitory Concentration (MIC) in μg./ml. Against Entamoeba hist.” value (Entamoeba histolytica) of the same compound?
Answer: The value was 12.5 µg/mL.

Question: For “Mixture of 5-Methyl-4-(1-methyl-5-nitro-2-imidazolyl)-isoxazole and 3-Methyl-4-(1-methyl-5-nitro-2-imidazolyl)-isoxazole”, which “Minimum Inhibitory Concentration (MIC) in μg./ml. Against Trich vag.” value (Trichomonas vaginalis [1]; Table II) is on record?
Answer: The value was 0.2 µg/mL.

Question: And the “Minimum Inhibitory Concentration (MIC) in μg./ml. Against Entamoeba hist.” value (Entamoeba histolytica)?
Answer: The value was 50 µg/mL.
